Consider six molecules from patent US5658890A, “C-nucleoside isostere of nicotinamide adenine dinucleotide, analogs thereof and use as anti-cancer agent” (Sloan-Kettering Institute for Cancer Research, priority 1995, dated 1997).

The target in data set [1] is T1, horse liver alcohol dehydrogenase (ADH) (Equus caballus, UniProt P00327).
T1 construct: horse liver alcohol dehydrogenase (ADH); from tissue; host or cells: horse liver
The experiment in a line: Inhibition of horse liver alcohol dehydrogenase (ADH), NADH absorbance at 340 nm. Format: biochemical. Particulars: for Ki: pH 8.0. As for the experimental part:
2. Inhibition of horse liver alcohol dehydrogenase (ADH) and bovine glutamate dehydrogenase (GDH) Rate measurements for each of the dehydrogenases used in this study are based on the spectral properties of NADH. […] Rates, using absorbance measurements, were calculated using a millimolar extinction coefficient of 6.22/cm for NADH. Alcohol dehydrogenase assays were run at pH 8.0, using 0.1M sodium phosphate buffer. […] All kinetic assays were run at least in duplicate. Initial values of inhibition constants were estimated from Lineweaver-Burk plots, using linear regression to obtain values for the slope and intercept of each line. Inhibition was judged to be competitive if the values obtained for the intercepts of the appropriate polots differed by less than three standard deviations as determined by linear regression. Values for the inhibition constant, Kis was obtained using the relationship: […] where S(+) and S(-) are the slopes of the plots in the presence and absence of inhibitor, respectively, and [I] is the concentration of total added inhibitor. Where a noncompetitive pattern of inhibition was observed, a similar analysis was used to obtain Kii. Km for conenzyme was obtained from the slope and intercept obtained in plots in the absence of inhibitor, using the relationship: Km =[…]. Values of effective inhibition constants and patterns of inhibition for CNAD binding to ADH were obtained by direct least-squares fits to the nonreciprocal forms of the Michaelis-Menten rate equations. Kinetic data were fit to the following relationships, assuming both competitive and noncompetitive inhibition respectively: vo =[…]]} vo =[…] vo is the initial reaction rate, Vm is the maximal rate, and Km and [A] the Michaelis constant and concentration of the variable substrate, respectively. The pattern of inhibition considered to best account for the observed data was that giving both the smallest residuals between observed and calculated values, and the smallest standard errors in the computed kinetics constants. […] Derivation of this rate equation assumes the presence of a tight binding inhibitor, i.e., that [I]~[E]. In this experiment both inhibitor and enzyme concentration were varied. Initial rates vo were measured at total concentrations of CNAD ([I]) of 0, 2.4, 9.6, and 19.2 nM over four concentrations of ADH ([E]). Concentrations of ethanol and NAD were fixed at 1.2 […] and 87 μM at pH 8.0. The apparent inhibition constant with respect to NAD, Ki', was then obtained by non-linear least-squares fit to the rate equation under the array of experimental conditions employed. The true rate constant Ki was obtained from the apparent rate constant Ki was obtained from the apparent rate constant Ki, via the relationship: […]

The subject of data set [2] is murine leukemia L1210 cells. The experiment in a line: Cytotoxicity to murine leukemia L1210 cells. Particulars: Mus musculus, incubated 24 and 48 hr, cells counted in a Coulter counter, read-out: inhibits the proliferation of L1210 cells by 50% (IC50). In kind it is cell-based. The procedure:
1. Cytoxicity of 5-(β-D-ribofuranosyl)nicotinamide-(5'-5")-adenosine pyrophosphate (Compound 2, CNAD) to murine leukemia L1210 cells.
Murine leukemia L1210 cells were grown in RPMI 1640 medium. Logarithmically growing cells were incubated with various concentrations of CNAD for 24 and 48 hr periods and the cytoxicity determined by counting the cells in a Coulter counter.

The target of data set [3] is bovine glutamate dehydrogenase (GDH) (Bos taurus, UniProt P00366). The data set is described as follows: Inhibition of bovine glutamate dehydrogenase (GDH). In kind it is biochemical. As for the experimental part:
2. Inhibition of horse liver alcohol dehydrogenase (ADH) and bovine glutamate dehydrogenase (GDH)
Rate measurements for each of the dehydrogenases used in this study are based on the spectral properties of NADH. In assays with NAD as a substrate, rates were determined by measuring the increase in absorbance at 340 nm resulting from the conversion of NAD to NADH. Rates, using absorbance measurements, were calculated using a millimolar extinction coefficient of 6.22/cm for NADH.
Alcohol dehydrogenase assays were run at pH 8.0, using 0.1M sodium phosphate buffer. Glutamate dehydrogenase assays were at pH 7.0 in 0.1M sodium phosphate buffer, containing 10 μm EDTA. All kinetic assays were run at least in duplicate.
Initial values of inhibition constants were estimated from Lineweaver-Burk plots, using linear regression to obtain values for the slope and intercept of each line. Inhibition was judged to be competitive if the values obtained for the intercepts of the appropriate polots differed by less than three standard deviations as determined by linear regression. Values for the inhibition constant, Kis was obtained using the relationship:
where S(+) and S(-) are the slopes of the plots in the presence and absence of inhibitor, respectively, and [I] is the concentration of total added inhibitor. […]

Data set [4] relates to malate dehydrogenase (MDH). The experiment in a line: Inhibition of malate dehydrogenase by the NAD analog. In kind it is biochemical.
Data set [5] has as its system lactate dehydrogenase (LDH). The data set is described as follows: Inhibition of lactate dehydrogenase by the NAD analog. In kind it is biochemical.
The test system of data set [6] is inosine monophosphate dehydrogenase (IMPDH). The data set is described as follows: Inhibition of inosine monophosphate dehydrogenase by the NAD analog. In kind it is biochemical.
Data set [7] has as its target T2, horse liver alcohol dehydrogenase (LADH) (Equus caballus, UniProt P00327).
T2 construct: Horse liver ADH was obtained in crystalline form; purchased Boehringer Mannheim Biochemicals, Indianapolis; host or cells: horse liver
The data set is described as follows: Preliminary assays of horse liver alcohol dehydrogenase (LADH) inhibition. In kind it is biochemical. As to conditions: ethanol 1.2 mM, pH 8, read-out: level of inhibition of horse liver alcohol dehydrogenase (LADH). As for the experimental part:
Purified human recombinant IMPDH-II was obtained from Dr. George D. Markham of the Institute for Cancer Research, Fox Chase Cancer Center, Fox Chase, Pa. Horse liver ADH was obtained in crystalline form from Boehringer Mannheim Biochemicals, Indianapolis. β-Nicotinamide adenine dinucleotide (NAD) in crystalline free acid form was also obtained from Boehringer. Inosine 5'-monophosphate (IMP) was purchased from Sigma Chemical Co., St. Louis as the disodium salt. All solutions were prepared using nano-pure water. Kinetic constants of the inhibitors with respect to NAD were obtained by monitoring spectrophotometrically the rate of production of NADH during the reaction. The course of the reaction was followed by measuring the changing absorbance of the reaction mixture at 340 nm, the absorbance peak for NADH, using a Beckman DU-65 spectrophotometer, and an extinction of 6.22 A mM^-1 cm^-1 for the reduced cofactor.(51) Preliminary assays of alcohol dehydrogenase were performed in a similar manner to that described above. LADH in crystalline suspension was spun down to a pellet and dissolved in 100 mM Tris-HCl buffer containing 100 mM KCl adjusted to pH 8 at 23° C. Stock solutions of NAD and ethanol were prepared in buffer based on molecular weight and volume, respectively. Ethanol was introduced as an aliquot of stock solution and its concentration was kept constant at 1.2 mM while NAD concentration was varied by serial dilution of the stock solution.

The target of data set [8] is T3, Human IMPDH type II (Homo sapiens, UniProt P12268).
T3 construct: Dr. George D. Markham, Institute for Cancer Research, Fox Chase Cancer Center, Fox Chase, Pa
The experiment in a line: Inhibition of human IMPDH type II by TAD analogues. In kind it is biochemical. As for the experimental part:
Purified human recombinant IMPDH-II was obtained from Dr. George D. Markham of the Institute for Cancer Research, Fox Chase Cancer Center, Fox Chase, Pa. Horse liver ADH was obtained in crystalline form from Boehringer Mannheim Biochemicals, Indianapolis. β-Nicotinamide adenine dinucleotide (NAD) in crystalline free acid form was also obtained from Boehringer. Inosine 5'-monophosphate (IMP) was purchased from Sigma Chemical Co., St. Louis as the disodium salt. All solutions were prepared using nano-pure water.
Kinetic constants of the inhibitors with respect to NAD were obtained by monitoring spectrophotometrically the rate of production of NADH during the reaction.
Human IMPDH type II was stored at -70° C. in buffer containing 20 mM KCl, 1 mM EDTA, 1 mM DTT and 20 mM Tris-HCl adjusted to pH 8 at 23° C. In preparation for the assays, a frozen aliquot was thawed rapidly and filtered through a 0.45 μm acetate filter. Protein concentration was determined from a Coomassie Assay. In some cases the enzyme was diluted 4:1 in similar 20 mM Tris buffer. NAD and IMP solutions were prepared based on molecular weight.
Combination of the reactants was performed as follows: An aliquot of substrate solution was pipetted down one side of a cuvet, one of co-factor down another side, and inhibitor down a third. The volume was brought to 990 μL with reaction buffer and the cuvet was agitated. This mixture was allowed to incubate in the spectrophotometer sample holder for five minutes before the reaction was started, the temperature held at 37° C. by a circulating water bath. The reaction was initiated by the introduction of 10 μL of enzyme solution on a mixing plunger, and NADH production was monitored for between two and 10 minutes, depending on the activity of the protein solution.
The uninhibited rate of reaction as a function of cofactor concentration was first established. Velocities at four NAD concentrations and saturating substrate concentrations were measured and Km for NAD obtained. Inhibitor was then introduced to the reaction mixture with an NAD concentration in the vicinity of Km.
Lineweaver-Burk plots were used to assess the quality of the data and to initially characterize the mode of inhibition with respect to NAD. […] Consequently, values of kii (intercept) and kis (slope) reported in Table I were obtained from direct least squares fits to the expression:
where vo is the measured initial rate, Vm is the maximum rate, Km is the Michaelis constant of NAD, and [A] is concentration of NAD.

Data set [9] concerns cell membranes. As to conditions: compared with tiazofurin; personal communication (ref. 35); cited from earlier work.
Setting [10] is: IMPDH type II, read-out: Kis (binding).
[11] abbreviates: NAD variable substrate, IMP constant at 100 μM, non-competitive, 37° C., read-out: Kii.
The mark [12] stands for this setting: NAD variable substrate, IMP constant at 100 μM, non-competitive, 37° C., read-out: Kis.

Like-named read-outs stand apart in the source and are kept apart here.

T1 sequence (P00327 whole entry): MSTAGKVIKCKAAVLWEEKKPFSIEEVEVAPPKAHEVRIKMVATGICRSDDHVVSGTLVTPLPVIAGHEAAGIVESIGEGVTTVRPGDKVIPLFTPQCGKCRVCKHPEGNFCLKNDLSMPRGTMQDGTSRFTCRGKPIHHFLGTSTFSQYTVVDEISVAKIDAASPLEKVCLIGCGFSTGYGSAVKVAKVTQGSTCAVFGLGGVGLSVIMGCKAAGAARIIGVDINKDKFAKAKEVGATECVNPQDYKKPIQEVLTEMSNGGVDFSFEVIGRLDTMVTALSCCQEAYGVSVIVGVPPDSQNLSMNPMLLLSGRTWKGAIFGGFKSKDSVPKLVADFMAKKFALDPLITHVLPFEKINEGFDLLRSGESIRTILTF
T2 sequence (P00327 whole entry): as above
bovine glutamate dehydrogenase (GDH), sequence (P00366 58-558): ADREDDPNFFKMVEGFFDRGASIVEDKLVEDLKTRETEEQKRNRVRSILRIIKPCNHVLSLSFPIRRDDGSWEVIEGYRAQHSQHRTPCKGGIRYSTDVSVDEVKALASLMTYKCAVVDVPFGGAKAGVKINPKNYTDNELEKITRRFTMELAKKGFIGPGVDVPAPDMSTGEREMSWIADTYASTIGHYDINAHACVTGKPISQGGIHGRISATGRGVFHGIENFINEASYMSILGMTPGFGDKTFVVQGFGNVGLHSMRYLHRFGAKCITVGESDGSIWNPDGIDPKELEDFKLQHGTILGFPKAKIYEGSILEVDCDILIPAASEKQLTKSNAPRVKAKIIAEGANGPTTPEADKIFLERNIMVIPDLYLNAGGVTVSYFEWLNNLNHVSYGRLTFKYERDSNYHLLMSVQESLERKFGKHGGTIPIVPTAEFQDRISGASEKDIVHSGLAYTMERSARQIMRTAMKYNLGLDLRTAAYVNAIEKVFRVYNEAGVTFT

In the case of `NC(=O)c1cccc([C@@H]2O[C@H](COP(=O)(O)OP(=O)(O)OC[C@H]3O[C@@H](n4cnc5c(N)ncnc54)[C@H](O)[C@@H]3O)[C@@H](O)[C@H]2O)n1` [C-PAD, 6-(β-D-ribofuranosyl)picolinamide-(5'-5")adenosine pyrophosphate], the “pattern of inhibition of ADH with respect to NAD” value in data set [1] is given as “competitive”. Further, in data set [1] (competitive, read-out: Ki, inhibition of ADH with respect to NAD), the Ki is 20 µM.
As for `NC(=O)c1cncc([C@@H]2O[C@H](COP(=O)(O)OP(=O)(O)OC[C@H]3O[C@@H](n4cnc5c(N)ncnc54)[C@H](O)[C@@H]3O)[C@@H](O)[C@H]2O)c1` [CNAD, 5-(β-D-ribofuranosyl)nicotinamide-(5'-5")-adenosine pyrophosphate], the IC50 in [2] was determined as 7 µM. Besides, in data set [3], the “pattern of inhibition of GDH with respect to NAD” value is recorded as “competitive”. For the same molecule, the Ki came to 15 µM in [3] (competitive, pH 7.0); 0.006 µM in data set [1] (direct least-squares fit to Michaelis-Menten rate equations, read-out: apparent Ki (Ki') with respect to NAD); 0.002 µM in data set [1] (non-competitive, with respect to NAD, read-out: Ki, inhibition of ADH). Besides, the “pattern of inhibition of MDH with respect to NAD” value in [4] was “competitive”. In addition, in data set [1], the “inhibitory activity against alcohol dehydrogenase from horse liver (in words)” value was “highly potent and selective inhibitory activity”. The “pattern of inhibition of ADH with respect to NAD” value in [1] is “non-competitive”. Besides, the “pattern of inhibition of LDH with respect to NAD” value in [5] is recorded as “competitive”. Further, the “pattern of inhibition of IMPDH with respect to NAD” value in data set [6] was “competitive”.
`NC(=O)c1csc([C@@H]2O[C@H](COP(=O)(O)OP(=O)(O)OC[C@H]3O[C@@H](n4cnc5c(N)ncnc54)[C@H](F)[C@@H]3O)[C@@H](O)[C@H]2O)n1` [Compound 3, P^1-(Tiazofurin-5'-yl)-P^2-(2'-deoxy-2'-fluoroadenosin 5'-yl)pyrophosphate]: the Ki in data set [7] worked out at 100 µM; in [8] (setting [10]), 0.5 µM; in data set [8] (setting [11]) it was 0.5 ± 0.1 µM; in [8] (setting [12]), 6 ± 12 µM.
For the molecule `NC(=O)c1csc([C@@H]2O[C@H](COP(=O)(O)OP(=O)(O)OC[C@H]3O[C@@H](n4cnc5c(N)ncnc54)[C@H](O)[C@@H]3F)[C@@H](O)[C@H]2O)n1` [Compound 4, P^1-(Tiazofurin-5'-yl)-P^2-(3'-deoxy-3'-fluoroadenosin-5'-yl)pyrophosphate], the Ki in data set [7] is 100 µM; in data set [8] (setting [10]) it was 0.7 µM; in data set [8] (setting [11]), 0.7 ± 0.1 µM; in [8] (setting [12]), 1.5 ± 0.6 µM.
In the same order, the values of `NC(=O)c1csc([C@@H]2O[C@H](COP(=O)(O)OP(=O)(O)OC[C@H]3O[C@@H](n4cnc5c(N)ncnc54)[C@@H](F)[C@@H]3O)[C@@H](O)[C@H]2O)n1` [Compound 5] are over 10000 µM, 2.9 µM, 2.9 ± 0.5 µM and 13 µM.
`NC(=O)c1csc([C@@H]2O[C@H](COP(=O)(O)C(F)(F)P(=O)(O)OC[C@H]3O[C@@H](n4cnc5c(N)ncnc54)[C@H](O)[C@@H]3O)[C@@H](O)[C@H]2O)n1` [β-CF2 -TAD, β-difluoromethylene TAD]: the “penetration of cell membranes” value in data set [9] was “can penetrate cell membranes although not as efficiently as tiazofurin”. Further, the Ki was 0.17 µM in data set [8] (IMPDH type II, read-out: Ki); 0.17 ± 0.03 µM in data set [8] (setting [11]); 0.3 ± 0.2 µM in data set [8] (setting [12]).
